Assays:
[1] = target: T1, HA-tagged GSPT1 and endogenous cereblon (Homo sapiens, UniProt P15170+Q96SW2); assay: Anti-HA immunoprecipitation of HA-tagged GSPT1 with endogenous cereblon in U937-Cas9 cells; type: cell-based; settings: with MLN4924
T1 construct: expressed in transfected cells; host or cells: U937-Cas9 cells stably expressing HA-tagged GSPT1 (cereblon endogenous); cells treated with MLN4924 and Compound D, anti-HA immunoprecipitation

U937 Cas9 cell lines = assay: Cell proliferation assay (CTG, 5 days) in U937 cells after RNP electroporation knockout; type: cell-based, human
From the text: Next, the roles of additional negative regulators of mTOR were studied. To knockout the studied genes, an electroporation-based method was used where a ribonucleoprotein (RNP) consisting of the Cas9 protein and gene-targeting gRNA was directly delivered to the U937 cells. A crRNA-tracrRNA duplex was first prepared consisting of the crRNA with a 20 nt sequence specific to each target gene and the universal tracrRNA to guide the Cas9 nuclease to the genomic locus. The sgRNA sequences targeting CRBN, ATF4, GCN1, GCN2, DDIT4, TSC1, TSC2, or non-targeting (NT-1) and non-coding (NC-8) controls were selected from the Cellecta sgRNA library. After pre-coupling the Cas9 enzyme to the crRNA-tracrRNA duplex, the complex was mixed with one million U937 cells per sample in nucleofection solution (4D-Nucleofector X kit SE; Lonza). Cells were electroporated in a 4D nucleofector according to the manufacturer's instructions and plated into complete cell culture media.
Then a cell proliferation assay was performed. Compound D dissolved in DMSO was injected into 96-well cell culture plates using a HP D300 digital dispenser in triplicate for each final Compound D concentration. […] After 5 days, cell proliferation was assessed using CTG (CellTiter-Glo) according to the manufacturer's instructions to assess the effects of Compound D on proliferation of each cell line.

U937 GCN2-/- cells = assay: Immunoblot and proliferation (CTG, day 3) of U937 GCN2-/- cells re-expressing GCN2; type: cell-based, human; settings: not with mutants T899A/T904A, K619R, F1143L/R1144L
Method: The U937 GCN2−/− cell line is derived from a single clone of U937 parental cells stably infected with a lentiviral CRISPR vector targeting GCN2. […] Cells were incubated with DMSO or 200 nM Compound D and lysed at the indicated time points. Arrows pointing to bands in the blot on the right designate the cleaved forms of caspase-3. […] The U937 GCN2−/− cell line is derived from a single clone of U937 parental cells stably infected with a lentiviral CRISPR vector targeting GCN2. […] Cells were treated with DMSO or Compound D for 24 hours. On day 3 after Compound D treatment, cell proliferation was assessed by CTG. Result shown in all figure panels is representative of at least three biological replicates. Data in FIGS. 13C, 13D and 13E are shown as mean±SD, n=3 technical replicates.
To determine if the activation of the ISR by Compound D is solely mediated by GCN2, the effect of GCN2 ablation on Compound D response was evaluated.

T1 sequence (P15170 1-637 isoform P15170-3): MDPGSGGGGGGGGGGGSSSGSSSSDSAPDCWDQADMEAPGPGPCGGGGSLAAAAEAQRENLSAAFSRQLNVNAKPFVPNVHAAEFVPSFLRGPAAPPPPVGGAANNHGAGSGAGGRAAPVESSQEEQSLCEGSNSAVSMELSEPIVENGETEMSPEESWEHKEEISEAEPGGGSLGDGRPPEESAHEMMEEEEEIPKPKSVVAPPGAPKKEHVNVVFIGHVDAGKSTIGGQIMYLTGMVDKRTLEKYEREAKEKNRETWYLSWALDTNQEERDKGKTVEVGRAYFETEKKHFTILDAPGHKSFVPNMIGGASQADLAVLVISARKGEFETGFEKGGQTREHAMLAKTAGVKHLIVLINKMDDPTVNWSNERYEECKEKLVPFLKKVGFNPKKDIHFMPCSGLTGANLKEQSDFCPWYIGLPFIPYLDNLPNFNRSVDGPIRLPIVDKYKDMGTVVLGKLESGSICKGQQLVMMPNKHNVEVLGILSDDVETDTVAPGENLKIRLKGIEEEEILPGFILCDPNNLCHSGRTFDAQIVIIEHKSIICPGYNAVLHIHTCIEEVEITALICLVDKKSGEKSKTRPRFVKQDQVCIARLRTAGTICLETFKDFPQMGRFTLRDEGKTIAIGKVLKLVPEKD
T1 sequence (Q96SW2 whole entry): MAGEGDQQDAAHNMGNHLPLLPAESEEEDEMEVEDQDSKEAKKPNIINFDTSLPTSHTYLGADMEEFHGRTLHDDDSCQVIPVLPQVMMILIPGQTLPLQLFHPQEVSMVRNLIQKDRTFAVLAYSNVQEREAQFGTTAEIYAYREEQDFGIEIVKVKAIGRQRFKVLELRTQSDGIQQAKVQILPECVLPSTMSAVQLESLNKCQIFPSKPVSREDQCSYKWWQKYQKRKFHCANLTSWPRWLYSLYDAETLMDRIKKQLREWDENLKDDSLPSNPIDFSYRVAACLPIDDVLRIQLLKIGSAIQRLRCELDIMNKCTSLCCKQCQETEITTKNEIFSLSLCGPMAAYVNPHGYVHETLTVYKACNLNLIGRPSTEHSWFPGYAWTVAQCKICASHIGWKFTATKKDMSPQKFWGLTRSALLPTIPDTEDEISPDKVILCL
T1 sequence (Q16531 whole entry partner): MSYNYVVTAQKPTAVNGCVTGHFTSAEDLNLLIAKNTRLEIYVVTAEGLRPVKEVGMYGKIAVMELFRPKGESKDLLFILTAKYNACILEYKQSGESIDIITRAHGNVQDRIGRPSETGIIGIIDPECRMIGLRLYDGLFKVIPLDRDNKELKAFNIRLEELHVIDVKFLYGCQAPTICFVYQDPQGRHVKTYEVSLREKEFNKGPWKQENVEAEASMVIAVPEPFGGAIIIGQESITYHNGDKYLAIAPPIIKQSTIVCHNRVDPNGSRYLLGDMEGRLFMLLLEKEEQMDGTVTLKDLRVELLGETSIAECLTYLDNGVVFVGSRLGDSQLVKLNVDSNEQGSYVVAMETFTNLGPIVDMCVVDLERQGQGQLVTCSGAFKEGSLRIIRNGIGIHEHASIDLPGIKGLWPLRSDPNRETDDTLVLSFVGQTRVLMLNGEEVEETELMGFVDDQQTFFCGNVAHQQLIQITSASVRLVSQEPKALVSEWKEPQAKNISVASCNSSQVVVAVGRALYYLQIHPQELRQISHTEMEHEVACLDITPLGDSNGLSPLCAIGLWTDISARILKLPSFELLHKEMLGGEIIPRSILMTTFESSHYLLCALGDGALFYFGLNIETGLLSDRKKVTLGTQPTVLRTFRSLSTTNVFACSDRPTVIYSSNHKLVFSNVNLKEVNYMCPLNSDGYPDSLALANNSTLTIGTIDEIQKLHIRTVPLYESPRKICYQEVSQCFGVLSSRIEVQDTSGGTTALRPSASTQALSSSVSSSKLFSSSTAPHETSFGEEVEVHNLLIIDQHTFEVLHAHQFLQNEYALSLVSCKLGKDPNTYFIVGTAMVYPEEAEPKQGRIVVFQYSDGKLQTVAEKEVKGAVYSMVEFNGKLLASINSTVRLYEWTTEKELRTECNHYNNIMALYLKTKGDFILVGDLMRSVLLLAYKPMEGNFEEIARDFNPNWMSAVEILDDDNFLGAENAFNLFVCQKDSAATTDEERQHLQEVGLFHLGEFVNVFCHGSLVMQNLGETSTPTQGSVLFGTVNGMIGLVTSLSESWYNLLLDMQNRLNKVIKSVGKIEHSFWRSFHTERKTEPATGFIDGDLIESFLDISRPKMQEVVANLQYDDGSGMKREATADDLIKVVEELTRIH

O=C1CCC(N2Cc3cc(CNC(=O)C(F)(F)c4ccc(Cl)cc4)ccc3C2=O)C(=O)N1 (stereo not shown) [Compound D, 2-(4-chlorophenyl)-N-((2-(2,6-dioxopiperidin-3-yl)-1-oxoisoindolin-5-yl)methyl)-2,2-difluoroacetamide]
Compound D-induced interaction of HA-tagged GSPT1 with endogenous cereblon after TSC1 loss [1]: significantly reduced the interaction between HA-tagged GSPT1 and endogenous cereblon induced by Compound D
anti-proliferative effects after depletion of GCN2, ATF4, GCN1, CRBN, DDIT4, TSC1, TSC2 (U937 Cas9 cell lines; U937): diminished this effect
anti-proliferative effects in control cells (U937 Cas9 cell lines; U937 parental and non-coding (NC-8) controls): dose-dependent anti-proliferative effects
response after reintroduction of GCN2 wild-type (U937 GCN2-/- cells): significantly restored the response to Compound D

Source: patent US20220389515A1, “USE OF BIOMARKERS TO PREDICT CLINICAL SENSITIVITY TO 2-(4-CHLOROPHENYL)-N-((2-(2,6-DIOXOPIPERIDIN-3-YL)-1-OXOISOINDOLIN-5-YL)METHYL)-2,2-DIFLUOROACETAMIDE” (priority 2019, published 2022)
